Results on six molecules are retold here after paper PMC3821527 (Bioorganic & medicinal chemistry letters, 2013).

The target in assay [1] is T1, AAC(6′)-Ib (Klebsiella pneumoniae, UniProt P19650). Put plainly: AAC. It counts as biochemical. Particulars: for inhibition of the acetylation of kanamycin A: 100 μM compound, 18 μM kanamycin A, 50 μM acetyl CoA, 10% DMSO.
Assay [2] deals with T1, AAC(6′)-Ib. The experiment in a line: AAC. It counts as biochemical. The conditions noted are these: Lineweaver-Burk plots; for mode of inhibition with respect to acetyl CoA: variable acetyl CoA; for mode of inhibition with respect to kanamycin A: variable kanamycin A.

The structures appear in SMILES notation.

T1 sequence (P19650 whole entry): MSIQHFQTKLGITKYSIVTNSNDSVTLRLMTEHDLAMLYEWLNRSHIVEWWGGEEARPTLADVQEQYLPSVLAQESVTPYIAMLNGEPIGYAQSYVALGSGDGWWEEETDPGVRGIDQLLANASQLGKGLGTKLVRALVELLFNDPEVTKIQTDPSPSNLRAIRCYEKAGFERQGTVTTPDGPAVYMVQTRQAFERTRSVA

For the molecule `O=C1NC(=O)N(c2ccc(Cl)cc2)C(=O)/C1=C\c1ccco1` [Compound 2b, 1-(4-chlorophenyl)-5-(2-furylmethylene)-2,4,6(1H,3H,5H)-pyrimidinetrione], the “inhibition of the acetylation of kanamycin A” value (shortened to “inhibition … of kanamycin A”) in assay [1] is given as “weaker inhibition”.

With `Cc1cccc(N2C(=O)/C(=C/c3ccccc3OCc3ccc(C(=O)O)cc3)C(=O)NC2=S)c1` [Compound 1, 4-[(2-{[1-(3-methylphenyl)-4,6-dioxo-2-thioxotetrahydro-5(2H)-pyrimidinylidene]methyl}phenoxy)methyl]benzoic acid], the “inhibition … of kanamycin A” value in assay [1] is “modest inhibition”. For the same molecule, in assay [2], the “mode of inhibition with respect to acetyl CoA” value is given as “noncompetitive” and the “mode of inhibition with respect to kanamycin A” value is listed as “competitive”.

Take `O=C1C(=Cc2ccco2)C(=O)N(c2ccccc2)C(=O)N1c1ccccc1` [Compound 2d]: in assay [1], the “inhibition … of kanamycin A” value was “lack of activity”.

For `O=C1/C(=C/c2ccco2)C(=O)N(c2ccc(Br)cc2)C(=S)N1c1ccccc1` [Compound 5309471], the “inhibitory activity in the presence of 0.01% Triton X-100” value in assay [1] (0.01% Triton X-100, to rule out non-specific protein aggregation) is recorded as “did not show the same level of inhibitory activity”.

As to `O=C1C(=Cc2ccco2)C(=O)N(c2ccccc2)C(=S)N1c1ccccc1` [Compound 2c], in assay [1], the “inhibition … of kanamycin A” value is “lack of activity”.

On to `O=C(O)c1ccccc1-c1ccc(C=C2C(=O)N(c3ccccc3)C(=S)N(c3ccccc3)C2=O)o1` [Compound 2, 2-{5-[(4,6-dioxo-1,3-diphenyl-2-thioxotetrahydro-5(2H)-pyrimidinylidene)methyl]-2-furyl}benzoic acid], for which, in assay [1], the “inhibition … of kanamycin A” value was “significant inhibition”. In assay [2], the “mode of inhibition with respect to acetyl CoA” value was “noncompetitive” and the “mode of inhibition with respect to kanamycin A” value is listed as “competitive”.
